Tests used:
Adenosine receptor A2a [1] = target: T1, Adenosine receptor A2a (Homo sapiens, UniProt P29274)
Adenosine receptor A1 [2] = target: T2, Adenosine receptor A1 (Homo sapiens, UniProt P30542); assay: Displacement of [3H]DPCPX from A1 adenosine receptor (unknown origin) expressed in CHO cell membrane incubated for 60 mins at room temperature by NXT microplate scintillation counter analysis; format: cell membranes
T2 sequence (P30542 whole entry): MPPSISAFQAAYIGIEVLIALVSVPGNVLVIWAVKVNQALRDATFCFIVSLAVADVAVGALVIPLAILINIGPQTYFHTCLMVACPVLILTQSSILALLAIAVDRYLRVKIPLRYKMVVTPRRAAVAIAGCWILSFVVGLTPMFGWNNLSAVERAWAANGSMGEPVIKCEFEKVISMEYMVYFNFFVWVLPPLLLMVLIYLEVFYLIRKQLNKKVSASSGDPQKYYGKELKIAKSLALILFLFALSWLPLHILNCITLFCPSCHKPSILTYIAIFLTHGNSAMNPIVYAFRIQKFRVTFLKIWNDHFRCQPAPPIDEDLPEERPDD

Adenosine receptor A1 [3] = target: T2, Adenosine receptor A1
Adenosine receptor A2a [4] = target: T1, Adenosine receptor A2a; remark: listed apart in the source
in vitro = conditions: human, liver microsomes
Description: Stability of the compound in human liver microsome assessed as compound remaining measured after 60 mins by UPLC-MS/MS analysis

T1 sequence (P29274 whole entry): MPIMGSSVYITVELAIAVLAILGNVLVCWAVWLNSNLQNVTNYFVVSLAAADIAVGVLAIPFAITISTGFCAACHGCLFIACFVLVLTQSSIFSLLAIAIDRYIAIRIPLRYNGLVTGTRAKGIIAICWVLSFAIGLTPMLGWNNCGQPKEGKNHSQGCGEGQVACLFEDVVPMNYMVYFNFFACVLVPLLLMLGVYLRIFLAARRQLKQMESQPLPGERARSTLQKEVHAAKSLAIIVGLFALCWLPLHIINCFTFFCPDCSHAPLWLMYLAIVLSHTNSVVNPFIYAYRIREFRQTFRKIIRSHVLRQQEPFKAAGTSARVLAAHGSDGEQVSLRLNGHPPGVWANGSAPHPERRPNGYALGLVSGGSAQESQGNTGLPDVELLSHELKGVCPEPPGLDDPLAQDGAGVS

N#Cc1c(-c2ccccc2)nc(NC(=O)C2CCCC2)nc1-c1ccc2c(c1)OCO2
Ki (Adenosine receptor A2a [1]): 159 nM

Nc1nc(-c2ccccc2)c2c(n1)-c1ccccc1C2=O
Ki (Adenosine receptor A1 [2]): 0.1 nM

N#Cc1c(-c2ccccc2)nc(Nc2ccccc2)nc1-c1cccc(O)c1
Ki (Adenosine receptor A1 [3]): 18.3 nM
Ki (Adenosine receptor A2a [4]): 71.2 nM

C[C@]12CC[C@H]3[C@@H](CCC4=CC(=O)CC[C@@]43C)[C@@H]1CC[C@@H]2O [TESTOSTERONE]
remaining at 1 h (in vitro): 3.7%
